In US20220125793A1, “CANCER THERAPY USING 3,5-DISUBSTITUTED BENZENE ALKYNYL COMPOUND AND IMMUNE CHECKPOINT INHIBITOR” (TAIHO PHARMACEUTICAL CO., LTD., priority 2019, published 2022):

Legend:
[1] = tested on: mouse breast cancer cell line 4T1 subcutaneously implanted model; test: Influence on tumor immunity in model subcutaneously implanted with mouse breast cancer cell 4T1; type: in vivo, BALB/cAJcl mouse; details: Day 15
Method: Mouse breast cancer cell line 4T1 was subcutaneously implanted in a 6-week-old male BALB/cAJcl mouse. […] On the day following the final administration (Day 15), lymphocyte fractions were isolated from the tumor, spleen, and peripheral blood, and myeloid-derived suppressor cells (MDSCs) (CD11b^+/Gr−1^+ cells), CD4-positive T cells, and CD8-positive T cells were measured using a cell sorter.

urothelial cancer = details: cited from earlier work
[2] = 15 and 30 mg/kg/day oral, daily for 14 days, compared with control

Molecule | CD4-positive T cells in the peripheral blood lymphocyte fractions [1, 2] | CD8-positive T cells in the peripheral blood lymphocyte fractions [1, 2] | CD8-positive T cells in the spleen lymphocyte fractions [1, 2] | MDSCs in the peripheral blood lymphocyte fractions [1, 2] | MDSCs (CD11b+/Gr-1+ cells) in the spleen lymphocyte fractions ([1]; any dose (15 or 30 mg/kg/day oral, daily for 14 days), compared with non-drug administration control, Student's t-test P<0.01) | response in patients without FGFR genetic aberration (urothelial cancer; combined use with pembrolizumab) | sensitivity state of the cancer to immune checkpoint inhibitors (urothelial cancer; urothelial cancer patients, vofatamab administration)
C=CC(=O)N1CC[C@H](n2nc(C#Cc3cc(OC)cc(OC)c3)c3c(N)ncnc32)C1 [compound 1, (S)-1-(3-(4-amino-3-((3,5-dimethoxyphenyl)ethynyl)-1H-pyrazolo[3,4-d]pyrimidin-1-yl)pyrrolidin-1-yl)prop-2-en-1-one] | tended to increase in a dose-dependent manner | tended to increase in a dose-dependent manner | tended to increase in a dose-dependent manner | tended to decrease in a dose-dependent manner | significant reduction | – | –
vofatamab: an anti-FGFR3 antibody (antibody, chains of the INN, looked up, V domains shown) VH: EVQLVESGGGLVQPGGSLRLSCAASGFTFTSTGISWVRQAPGKGLEWVGRIYPTSGSTNYADSVKGRFTISADTSKNTAYLQMNSLRAEDTAVYYCARTYGIYDLYVDYTEYVMDYWGQGTLVTVSS VL: DIQMTQSPSSLSASVGDRVTITCRASQDVDTSLAWYKQKPGKAPKLLIYSASFLYSGVPSRFSGSGSGTDFTLTISSLQPEDFATYYCQQSTGHPQTFGQGTKVEIK | – | – | – | – | – | response by combined use with pembrolizumab is observed | change from a “cold” state (low sensitivity to immune checkpoint inhibitors) to a “hot” state (high sensitivity to immune checkpoint inhibitors)
